Assay results reported in patent US7534769B2, “Compositions and methods for enhancing delivery of therapeutic agents to cells” (Canji, Inc., priority 1996, dated 2009).
Entries after “also recorded” stand apart in the source; their conditions may differ. Each block holds one compound with its values, some of them ahead of it.

Experiments:
[1] = system: bladder urothelium; assay: Histological examination of Syn3 treated bladders (infiltrates); assay type: in vivo, rat; conditions: for inflammation / infiltration at lower concentration of Syn3: 0.25 mg/ml compared with 0.5 mg/ml, decreasing concentrations in Big CHAP or Tween 80
Method: (§1) Following removal of virus and flushing of the bladder, the animals were allowed to recover. After 48 hours the animals were sacrificed, their bladders fixed, and stained for β-gal expression. Following photographic recording, bladders were embedded in paraffin for sectioning and histological examination.
Bladders from animals treated with Syn3-rAd (β-Gal) were prepared for histological examination to determine the levels of viral infection, as well as the degree of viral penetration into the bladder urothelium.

[2] = Solubility and dissolution behaviour; assay type: physicochemical
[3] = Stability of Syn3 in solution; assay type: physicochemical
Method: However, if left at room temperature at this high concentration (100 mg/ml), it will solidify within 24 hours.

[4] = system: bladder; assay: Gene transfer activity of Syn3 in Big CHAP or Tween-80, β-galactosidase expression in bladder; assay type: in vivo, rat; conditions: for gene transfer activity / β-gal expression: 0.5 mg/ml in 7.8 mM Big CHAP
Method: as §1

[5] = system: bladder; assay: Gene transfer activity of water-soluble Syn3 analogs in vivo, whole organ Xgal staining; design: species or system rat; conditions: summary, Concentration 1 mg/ml
Method: A concentration of 1 mg/ml was chosen for initial testing of both compounds.
The solution of A-TMA was prepared by dissoluting 10 mg of A-TMA into 10 ml Dulbecco's PBS. Glycerol was added to provide a final concentration of 10 mg/ml. All solutions were sterile filtered prior to use (0.2 μm Acrodisc syring filter). The virus (BGCG 70AAB) was diluted 1:10 into either this A-TMA solution, or into Dulbecco's PBS-glycerol prior to administration.
Ten mg of A-HCl was dissoluted into this buffer and sterile filtered prior to use (0.2 μm Acrodisc suring filter). The virus (BGCG 70AAB) was diluted 1:10 into this solution prior to administration. For comparison, the virus diluted into this buffer without A-HCl was also tested.
Female HSD rats were anesthetized using isofluorane. The rats were transuretherally catheterized into the bladder using PE50 tubing lubricated with K-Y jelly. A tie-off was installed on the external urethra to prevent back leakage. Urine, if any, was removed and the bladder was flushed with 0.5 ml PBS and emptied. rAd was diluted to the desired concentration (1:10) and instilled for 45 minutes. The dosing material was removed, noting the return volume. The bladder was flushed with 0.5 ml PBS and emptied. The tie-off and catheter were removed, and the animals were allowed to recover in cages.
After 48 hours, the animals were sacrificed and their bladders inflation fixed with 0.5 ml fixative for 1 hour. The bladders were then rinsed overnight and whole organ Xgal staining was conducted.

[6] = system: bladder epithelium; assay type: in vivo, rat
Method: Nine female buffalo rats (Harlan Sprague Dawley) were anesthetized with isoflurane and received a single intravesical administration of a human recombinant adenovirus encoding the lacZ gene (rAd-βgal). […] The administered material was retained in the bladder for 45 minutes. The bladder were then flushed with PBS, and the animals were permitted to recover from the procedure. Two days after administration, rats were sacrificed, bladders were harvested, fixed, and whole organs were stained with an Xgal (5-Bromo-4-chloro-3-indolyl-β-D-galactoside) solution to evaluate reporter gene transfer. Xgal-stained tissues were then paraffin embedded, sectioned, and counter stained with hematoxylin and eosin.
After a 45 minute incubation, the bladders were flushed with PBS, and animals were permitted to recover from anesthesia.

[7] = system: bladder, kidney and liver homogenates; assay: ACNRB transgene expression by RT-PCR after intravesical administration; assay type: in vivo, mouse
Method: After the virus was retained in the bladder for 45 minutes, the animals were permitted to recover and void. […] Following amplification (30 cycles) RT-PCR products were separated on a 10% polyacrylamide gel, stained with ethidium bromide, and photographed. […] Untreated samples and bladder samples without the reverse transcriptase (RT) provided controls for contaminating DNA.
The instilled material was retained in the bladder for approximately 45 minutes, and animals were permitted to recover from the procedure. Mice were sacrificed 1, 2, 3, 4, 5, 6, 7, and 14 days after administration (N=4/time) for analysis. Bladders, livers, and kidneys were harvested and snap frozen in liquid nitrogen for subsequent analysis.
After the virus was retained in the bladder for 45 minutes, the animals were permitted to recover. […] Transgene expression was determined using RT-PCR. Tissues were rinsed in RNAse free water, homogenized, digested in Tri-Reagent (Molecular Research Center), and total cellular RNA extracted. […] RT-PCR was performed in the Perkin Elmer 9600 GeneAmp PCR System. Cycling conditions were 10 min at 65° C., 8 min at 50° C., 5 min at 95° C. 32 cycles of PCR were performed, each cycle consisting of 30 sec at 94° C., 30 sec at 58° C., and 30 sec at 72° C. The 32nd cycle included a 10 min elongation step at 72° C. to ensure full extension of incomplete DNA fragments.

[8] = system: bladder tissue; assay: Cystitis evaluation of formulations in mice, bladder histopathology; conditions: 80 μL intravesical, 7-day interval; 7 mM Big CHAP, 0.05 mM TRITON X-100 or 22% ethanol
Method: The formulations were administered intravesically in a volume of 80 μL, and animals were observed over a 7-day interval. After sacrifice, bladders were paraffin-embedded, sectioned, and stained with hematoxylin and eosin for pathologic evaluation.

[9] = system: bladder epithelium; assay: rAd-βgal gene transfer to bladder epithelium in detergent formulations, Xgal staining score and gross pathology; conditions: detergents at their critical micellization concentration
Method: rAd-βgal was formulated in different detergents at their critical micellization concentration to evaluate efficiency of gene transfer to the bladder epithelium. Female rats (about 200 g b/w, Harlan Sprague Dawley) were anesthetized with isoflurane and received a single intravesical administration of rAd-βgal (1×10^11 PN/ml) in different detergent formulations (see Table I). Before instillation, bladders were flushed with PBS and then emptied. rAd-βgal was then instilled in a volume of 0.5 ml. The instilled solution was retained in the bladder for 45 minutes. The bladders were then flushed with PBS, and the animals were permitted to recover from the procedure. 48 hours after administration, the rats were sacrificed, the bladders harvested, and fixed in formalin. After fixation, the bladders were opened longitudinally so that the urothelium was exposed to the chromogen (Xgal), that is converted to a blue color, if reporter gene (β-galactosidase) expression is present. The luminal epithelial surface of the whole bladder was photographed an blue staining scored: + (minimal staining), ++ (moderate staining), +++ intense staining covering the whole bladder epithelial surface.
Briefly, in anaesthetized female rats rAd-βgal (1×10^11 PN/ml) was administered into the bladder via an intravesical catheter. rAd-βgal was formulated in different concentrations of Big CHAP (CALBIOCHEM®). A volume of 0.5 ml was injected and remained instilled in the bladder for 45 minutes. The animals were sacrificed 48 hours later, the bladder fixed in 4% formalin/glutaraldehyde, opened longitudinally, and the β-galactosidase enzyme activity measured using Xgal substrate. The intensity of blue staining correlates with the βgal-transgene expression.
Effects of higher recombinant adenovirus concentrations were also tested. Briefly, in anaesthetized female rats different concentrations of rAd-βgal, formulated in 7 mM Big CHAP (CALBIOCHEM®) were administered into the bladder via an intravesical catheter. The animals were sacrificed 48 hours later, the bladder fixed in 4% formalin/glutaraldehyde, opened longitudinally, and Xgal stained.

- inflammation / infiltration at lower concentration of Syn3 [1]: proportionally lower infiltration
- inflammation / infiltration at lower concentration of Syn3 ([1]; listed as I3A): less inflammation
- behaviour on dissolution in water ([2]; 1 mg/ml in water): appeared to form vesicles
- behaviour on dissolution in water ([2]; 10 mg/ml in water): formed a gel
- amount of Syn3 that dissolutes ([2]; into 15 mM Big CHAP): Up to 5 mg/ml
- time to completely dissolute ([2]; into 10% Tween-80): several hours
- period over which gene transfer activity is retained ([3]; 0.25 mg/ml or 0.5 mg/ml in Big CHAP, room temperature): at least 30 days
- period of stability ([3]; 1 mg/ml in 0.1% Tween-80, longest period tested): at least 30 days
- period of stability ([3]; 100 mg/ml in 10% Tween-80, 4° C.): at least one week
- time to solidify ([3]; 100 mg/ml in 10% Tween-80, room temperature): ≤ 24 h
- stability (in words) ([3]; dissoluted into Big CHAP detergent): very stable
Compound: CC(CCC(=O)NCCCN(CCCNC(=O)C(O)C(O)C(OC1OC(CO)C(O)C(O)C1O)C(O)CO)C(=O)CCC(C)C1CCC2C3C(O)CC4CC(O)CCC4(C)C3CC(O)C12C)C1CCC2C3C(O)CC4CC(O)CCC4(C)C3CC(O)C12C (stereo not drawn) [Syn3]
- recruitment of infiltrates to the bladder ([1]; 0.5 mg/ml in 7.8 mM Big CHAP with rAd): massive recruitment of infiltrates to the bladder
- infiltration ([1]; Syn3 administered alone (no virus)): a significant amount of infiltration; also recorded: significant induction of infiltrates
- β-Gal expression on reducing the concentration of Syn3 (histology) ([1]; in either detergent): concomitant reduction in β-Gal expression
- dissolution in Tween 80 ([2]; 1 mg/ml in 0.1% Tween 80): clear solution; also recorded: readily solubilized
- gene transfer activity ([4]; 0.25 mg/ml in 3.9 mM Big CHAP): Very high levels of gene transfer
- gene transfer activity ([4]; 0.25 mg/ml in 3.9 mM Big CHAP, listed as I3A): high levels of gene transfer activity
- gene transfer activity / β-gal expression [4]: greatly enhance gene transfer and β-gal expression; also recorded: very high levels of gene transfer activity; also recorded: highest levels of β-galactosidase expression; also recorded: extremely high
- gene transfer activity / β-gal expression ([4]; listed as I3A): High levels of gene transfer
- gene transfer activity ([4]; 0.5 mg/ml in 0.05% Tween-80): more regions lacking β-galactosidase expression; also recorded: slightly reduced
- gene transfer activity ([4]; 1 mg/ml in 0.1% Tween 80): found to enhance gene transfer; also recorded: can enhance gene transfer; also recorded: very high levels of gene transfer; also recorded: consistently high levels of gene transfer; also recorded: effective in enhancing gene transfer; also recorded: Approximately equal levels of gene transfer
- gene transfer activity ([4]; 1 mg/ml in 0.1% Tween 80, listed as I3A): very high levels of gene transfer; also recorded: High levels of β-galactosidase activity
- gene transfer ([4]; 1 mg/ml in 0.4% Tween-80): almost no gene transfer
- gene transfer, 0.5 mg/ml in 7.8 mM Big CHAP compared with 1 mg/ml in 0.1% Tween-80 ([4]; rat, in vivo): approximately equal levels of gene transfer enhancement; also recorded: comparable
- gene transfer activity [5]: ++++

Compound: CCO [ethanol]
- β-galactosidase expression of the transitional bladder epithelium (histologic evaluation) ([6]; ethanol added to the adenovirus formulation): increased β-galactosidase expression
- β-galactosidase expression in the luminal epithelial surface ([6]; rAd-βgal 1.7×10^11 PN/mL diluted in 30% (v/v) ethanol, intravesical 45 min, 2 days after administration): greatly enhanced
- ACNRB expression in bladder (RT-PCR) ([7]; ACNRB 4×10^10 PN/mL in 22% (v/v) ethanol or 3 mM Big CHAP versus VPBS, 48 hours): enhanced expression
- ACNRB expression in bladder (RT-PCR) ([7]; ACNRB in 30% (v/v) ethanol compared to VPBS, 2 days): Increased ACNRB expression
- macrophage infiltration into the bladder tissue / cystitis [8]: significant cystitis

Compound: Triton X-100 [reference compound]
- gene transfer to the bladder epithelium (Table I) [9]: enhanced gene transfer dramatically
- macrophage infiltration into the bladder tissue / cystitis [8]: slight to mild
